Test results: ChEMBL document CHEMBL1201862, “PubChem BioAssay data set” (2004)
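The compound was tested at five concentrations on cells cultured in 96-well plates, with a 48-hour exposure period. GI50 is the concentration that inhibits growth by half.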 The source made the active and inactive calls. No stated cut-off is given here; in the data, active = GI50 up to about 1.1 µM and inactive = higher.

Columns and labels:
Test in all cases: NCI tumour cell line growth inhibition, 48 h
COLO 205 = system: COLO 205
SK-MEL-28 = system: SK-MEL-28
SF-295 = system: SF-295
A549 = system: A549
Malme-3M = system: Malme-3M
SN12C = system: SN12C
SK-OV-3 = system: SK-OV-3
UACC-62 = system: UACC-62
TK-10 = system: TK-10
MOLT-4 = system: MOLT-4
UO-31 = system: UO-31
SW-620 = system: SW-620
U-251 = system: U-251
HOP-92 = system: HOP-92
A498 = system: A498

Measured: GI50

O=C(CSc1nnc(-c2ccc(/N=C\c3ccc(Cl)cc3)cc2)o1)Nc1cccc([N+](=O)[O-])c1
inactive: COLO 205 > 100 µM | SK-MEL-28 > 100 µM | SF-295 > 100 µM | A549 > 100 µM | Malme-3M > 100 µM | SN12C > 100 µM | SK-OV-3 > 100 µM | UACC-62 > 100 µM | TK-10 > 100 µM | MOLT-4 > 100 µM | UO-31 > 100 µM | SW-620 > 100 µM | U-251 > 100 µM

COC(=O)/C(=N\NC(=O)c1ccccc1O)C(C#N)c1ccc(Cl)cc1 (stereo unspecified)
inactive: COLO 205 > 100 µM | SK-MEL-28 28.3 µM | SF-295 30.5 µM | A549 3.85 µM | Malme-3M 26.1 µM | SN12C 45.5 µM | UACC-62 3.69 µM | TK-10 > 100 µM | MOLT-4 31.4 µM | HOP-92 89.7 µM | UO-31 16.7 µM | SW-620 44.5 µM | U-251 44.7 µM | A498 > 100 µM

Nc1c(C(=O)Nc2ccccc2O)[n+]([O-])c2ccccc2[n+]1[O-]
inactive: COLO 205 42.9 µM | SK-MEL-28 79.4 µM | SF-295 58.9 µM | A549 36.1 µM | Malme-3M 83.9 µM | SN12C 63.2 µM | SK-OV-3 > 100 µM | MOLT-4 45.8 µM | HOP-92 > 100 µM | UO-31 37.5 µM | SW-620 21 µM | U-251 71.8 µM | A498 > 100 µM

Cc1cc(=O)oc2cc(OCc3nc4ccccc4c(=O)[nH]3)ccc12
inactive: COLO 205 > 100 µM | SK-MEL-28 > 100 µM | SF-295 > 100 µM | A549 > 100 µM | Malme-3M > 100 µM | SN12C > 100 µM | SK-OV-3 > 100 µM | UACC-62 > 100 µM | TK-10 > 100 µM | MOLT-4 > 100 µM | HOP-92 > 100 µM | SW-620 > 100 µM | U-251 > 100 µM | A498 > 100 µM

O=C1C(=O)N(c2nccs2)C(=O)C(=O)C1c1nc2ccccc2s1
inactive: COLO 205 > 100 µM | SK-MEL-28 > 100 µM | SF-295 > 100 µM | A549 > 100 µM | Malme-3M > 100 µM | SN12C > 100 µM | SK-OV-3 > 100 µM | UACC-62 > 100 µM | TK-10 > 100 µM | HOP-92 > 100 µM | UO-31 > 100 µM | SW-620 > 100 µM | U-251 83 µM

CCc1c(C#N)c(=O)[nH]c(=O)n1CCN1CCN(C(=O)NCCCCCCNC(=O)N2CCN(CCn3c(CC)c(C#N)c(=O)[nH]c3=O)CC2)CC1
inactive: COLO 205 > 100 µM | SK-MEL-28 > 10 µM | SF-295 > 100 µM | A549 > 100 µM | SN12C > 100 µM | SK-OV-3 > 100 µM | UACC-62 > 100 µM | TK-10 > 100 µM | MOLT-4 > 100 µM | SW-620 > 100 µM | U-251 > 100 µM | A498 > 100 µM

CC1(Cc2ccccc2)NC(=S)NC1=O (stereo unspecified)
inactive: COLO 205 > 100 µM | SK-MEL-28 > 100 µM | SF-295 > 100 µM | A549 > 100 µM | Malme-3M > 100 µM | SN12C > 100 µM | TK-10 > 100 µM | HOP-92 3.03 µM | UO-31 > 100 µM | SW-620 > 100 µM | U-251 > 100 µM

CN(C)C(=S)Nc1nnc(NC23CC4CC(CC(C4)C2)C3)s1.[O-][Cl+3]([O-])([O-])O
inactive: COLO 205 19.8 µM | SK-MEL-28 15 µM | SF-295 13.8 µM | A549 12.4 µM | Malme-3M 17.3 µM | SN12C 15.3 µM | SK-OV-3 43.8 µM | UACC-62 16.5 µM | TK-10 40.5 µM | MOLT-4 14.8 µM | UO-31 12.4 µM | SW-620 16.7 µM | U-251 12.2 µM | A498 15 µM

Cc1cc(Cl)ccc1NC(=O)C(=O)C(C(=O)c1ccc2ccccc2c1)C1OC(=O)c2ccccc21 (stereo unspecified)
inactive: COLO 205 13.2 µM | SK-MEL-28 9.79 µM | A549 21.3 µM | Malme-3M 10 µM | SN12C 15.7 µM | SK-OV-3 15.7 µM | UACC-62 8.67 µM | TK-10 > 10 µM | HOP-92 14.3 µM | UO-31 12.9 µM | SW-620 7.87 µM | U-251 4.95 µM | A498 7.48 µM

O=C(CSc1nnc(-c2ccc(/N=C\c3ccc(Cl)cc3)cc2)o1)Nc1ccc([N+](=O)[O-])cc1
inactive: COLO 205 35.2 µM | SK-MEL-28 18.5 µM | SF-295 30.2 µM | A549 39.9 µM | Malme-3M 92.3 µM | SN12C 21.7 µM | SK-OV-3 35.9 µM | UACC-62 18.9 µM | TK-10 51.4 µM | MOLT-4 15.7 µM | UO-31 18.4 µM | SW-620 17.1 µM | U-251 19.3 µM

Cc1c(C(=O)C/C(=N/NC(=O)C[N+](C)(C)C)C(=O)Nc2ccc(Cl)cc2)[n+]([O-])c2ccccc2[n+]1[O-]
inactive: COLO 205 > 100 µM | SK-MEL-28 > 100 µM | SF-295 > 100 µM | A549 > 100 µM | Malme-3M > 100 µM | SN12C > 100 µM | UACC-62 > 100 µM | TK-10 > 100 µM | MOLT-4 > 100 µM | HOP-92 > 100 µM | UO-31 > 100 µM | SW-620 > 100 µM | U-251 > 100 µM | A498 > 100 µM

COc1cccc(N2C(=O)/C(=C/c3ccc(N(CCC#N)CCC#N)cc3)N=C2c2cc([N+](=O)[O-])ccc2Cl)c1
inactive: COLO 205 14.7 µM | SK-MEL-28 > 100 µM | SF-295 19.7 µM | Malme-3M > 100 µM | SN12C 87.7 µM | SK-OV-3 > 100 µM | UACC-62 39.1 µM | MOLT-4 22.3 µM | UO-31 82 µM | SW-620 33.2 µM | U-251 59.2 µM | A498 > 100 µM

COC1=CC(=O)C(Br)=CC1=O
inactive: COLO 205 16.7 µM | SK-MEL-28 19.5 µM | A549 > 100 µM | Malme-3M 21 µM | SN12C 18.5 µM | SK-OV-3 > 100 µM | UACC-62 17.6 µM | TK-10 19.9 µM | MOLT-4 3.3 µM | HOP-92 15.9 µM | UO-31 17.5 µM | SW-620 23.2 µM

O=C(c1nc2ccc(Cl)cc2nc1O)C(O)c1ccc2c(c1)OCO2 (stereo unspecified)
inactive: COLO 205 > 100 µM | SK-MEL-28 78.5 µM | SF-295 > 100 µM | A549 > 100 µM | Malme-3M > 100 µM | SK-OV-3 > 100 µM | UACC-62 84.5 µM | TK-10 > 100 µM | MOLT-4 28.4 µM | HOP-92 > 100 µM | UO-31 > 100 µM | SW-620 > 100 µM | U-251 > 100 µM | A498 > 100 µM

CC(C)C1=CC23CCC4C(C)(C(=O)O)CCCC4(C)C2CC1C1C(=O)N(c2ccccc2)C(=O)C13 (stereo unspecified)
inactive: COLO 205 24.3 µM | SK-MEL-28 53.2 µM | SF-295 51.2 µM | A549 31.6 µM | Malme-3M 67.9 µM | SN12C 45.9 µM | SK-OV-3 56.4 µM | UACC-62 38.6 µM | TK-10 43.5 µM | MOLT-4 > 100 µM | HOP-92 32.7 µM | UO-31 43.7 µM | SW-620 54 µM | U-251 36.6 µM
